Experimental data: PMC8228600, “Design, Synthesis, In Vitro and In Vivo Evaluation of Heterobivalent SiFAlin-Modified Peptidic Radioligands Targeting Both Integrin αvβ3 and the MC1 Receptor—Suitable for the Specific Visualization of Melanomas?” (Pharmaceuticals, 2021)
Where two headings read alike, the source gives them in different places. Where a SMILES comes first, the peptide text is derived from it. [ ]: non-standard residue; d: D form.

Tests used:
[1] = molecular target: T1, MC1R (Mus musculus, UniProt Q01727); test: Competitive displacement assay on MC1R-positive B16F10 cells vs [125I]I-NDP; type: binding, murine
T1 construct: host or cells: B16F10 murine melanoma cells (whole cells)
Description: (§1) As in vitro receptor affinities represent an important parameter for the in vivo tumor uptake of radiotracers, the binding affinities of 1–6 were determined to both target receptors—integrin αvβ3 and the MC1R—in competitive displacement assays.
(§2) Murine melanoma cells (B16F10) and human glioblastoma cells (U87MG) as well as Dulbecco’s Modified Eagle’s Medium (DMEM) and Eagle’s Minimum Essential Medium (EMEM) were purchased from ATCC (Wesel, Germany). Fetal calf serum (FCS) was obtained from Bio&SELL (Feucht, Germany); phosphate-buffered saline (PBS), 1,10-phenanthroline, tris(hydroxymethyl)aminomethane hydrochloride (Tris·HCl) and manganese chloride (MnCl2) were obtained from Sigma-Aldrich (Taufkirchen, Germany); penicillin/streptomycin (pen/strep) and 0.25% Trypsin with 0.02% EDTA-solution in PBS were obtained from Gibco (Schwerte, Germany); 2-(4-(2-hydroxyethyl)-1-piperazinyl)-ethanesulfonic acid (HEPES) was obtained from Gerbu (Heidelberg, Germany); bovine serum albumin (BSA), sodium chloride (NaCl), calcium chloride (CaCl2) and magnesium chloride (MgCl2) were obtained from Carl Roth (Karlsruhe, Germany). [^125I]I-NDP (NEX352, 81.4 GBq/μmol) and [^125I]I-echistatin (NEX083, 81.4 GBq/μmol) were purchased from PerkinElmer (Rodgau, Germany). γ-counting was performed using a 2480 Wizard^2 gamma counter system from PerkinElmer.
(§3) To determine the binding affinity to the respective receptor, competitive displacement studies were performed on MC1R-expressing B16F10 and on integrin αvβ3-expressing U87MG cells. Each compound was evaluated at least three times, each experiment being performed in triplicate. As radioligands, [^125I]I-NDP (81.4 GBq/μmol) and [^125I]I-echistatin (81.4 GBq/μmol) were used as competitors. First, the Millipore MultiScreen 96-well filter plate was incubated with 200 μL/well of a BSA/PBS (1/99, w/v) solution at 25 °C for 1 h. After preparing the binding buffers (DMEM with 25 mM HEPES, 0.3 mM 1,10-phenanthroline and 0.2% BSA; EMEM with 20 mM Tris·HCl, 150 mM NaCl, 2 mM CaCl2, 1 mM MgCl2, 1 mM MnCl2 and 0.1% BSA), the dilution series of the HBPLs 1–6 (0.04–4 μM and 2–400 μM) and the reference agents 36–39 (0.01–1 μM and 0.04–400 μM) were prepared in the respective binding buffer. The solution of the respective radioligand was prepared by adding 55–75 kBq of the respective ^125I-labeled competitor to 3.5 mL of binding buffer. The respective cells were harvested and re-suspended in the binding buffer to give a cell concentration of 2 × 10^6/mL. After the BSA solution was filtered using the Millipore Multiscreen vacuum manifold, 50 μL of a cell suspension containing 10^5 cells were seeded in each well. Subsequently, 25 μL of the ^125I-labeled competitor solution (0.018 kBq/μL) and 25 μL of the respective compound to be tested were added. The compound to be tested was added in eleven increasing concentrations, whereas the 12th well contained no test compound to ensure the 100% binding of the ^125I-labeled competitor. After incubation of the plate for another hour at 25°C, the solution was filtrated using the Millipore Multiscreen vacuum manifold, and the cells were washed three times with cold PBS (1 × 200 μL, 2 × 100 μL). Using a Millipore MultiScreen disposable punch and a Millipore MultiScreen punch kit, the filters of the well plate were collected in γ-counter tubes separately and measured by γ-counting. The determination of the half-maximal inhibitory concentration (IC50) values was performed by fitting the obtained data via nonlinear regression using GraphPad Prism (v6.05).

[2] = molecular target: T2, integrin αvβ3 (Homo sapiens, UniProt P05106+P06756); test: Competitive displacement assay on integrin αvβ3-positive U87MG cells vs [125I]I-echistatin; type: binding
T2 construct: host or cells: U87MG human glioblastoma cells (whole cells)
Description: as §1, §2, §3

Molecule	IC50 [1] [nM]	IC50 [2] [nM]	other results
CCCC[C@H](NC(=O)CNC(=O)CNC(=O)CCOCCOCCC(=O)NCCCN(CCCNC(=O)CCOCCOCCC(=O)NCCCC[C@@H]1NC(=O)[C@@H](Cc2ccccc2)NC(=O)[C@H](CC(=O)O)NC(=O)CNC(=O)[C@H](CCCNC(=N)N)NC1=O)CC(=O)N[C@@H](CCCCNC(=O)CCC[N+](C)(C)Cc1ccc([Si](F)(C(C)(C)C)C(C)(C)C)cc1)C(N)=O)C(=O)N[C@H]1CC(=O)NCCCC[C@@H](C(N)=O)NC(=O)[C@H](Cc2c[nH]c3ccccc23)NC(=O)[C@H](CCCNC(=N)N)NC(=O)[C@@H](Cc2ccccc2)NC(=O)[C@H](Cc2c[nH]cn2)NC1=O [HBPL 1, SiFAlin-APG-PEG1-c(RGDfK)/GG-Nle-c(DHfRWK)]	1.74 ± 0.25	2880 ± 757	
CCCC[C@H](NC(=O)CNC(=O)CNC(=O)CCOCCOCCOCCOCCC(=O)NCCCN(CCCNC(=O)CCOCCOCCOCCOCCC(=O)NCCCC[C@@H]1NC(=O)[C@@H](Cc2ccccc2)NC(=O)[C@H](CC(=O)O)NC(=O)CNC(=O)[C@H](CCCNC(=N)N)NC1=O)CC(=O)N[C@@H](CCCCNC(=O)CCC[N+](C)(C)Cc1ccc([Si](F)(C(C)(C)C)C(C)(C)C)cc1)C(N)=O)C(=O)N[C@H]1CC(=O)NCCCC[C@@H](C(N)=O)NC(=O)[C@H](Cc2c[nH]c3ccccc23)NC(=O)[C@H](CCCNC(=N)N)NC(=O)[C@@H](Cc2ccccc2)NC(=O)[C@H](Cc2c[nH]cn2)NC1=O [HBPL 2, SiFAlin-APG-PEG3-c(RGDfK)/GG-Nle-c(DHfRWK)]	0.99 ± 0.11	1300 ± 288	
CCCC[C@H](NC(=O)CNC(=O)CNC(=O)CCOCCOCCOCCOCCOCCOCCC(=O)NCCCN(CCCNC(=O)CCOCCOCCOCCOCCOCCOCCC(=O)NCCCC[C@@H]1NC(=O)[C@@H](Cc2ccccc2)NC(=O)[C@H](CC(=O)O)NC(=O)CNC(=O)[C@H](CCCNC(=N)N)NC1=O)CC(=O)N[C@@H](CCCCNC(=O)CCC[N+](C)(C)Cc1ccc([Si](F)(C(C)(C)C)C(C)(C)C)cc1)C(N)=O)C(=O)N[C@H]1CC(=O)NCCCC[C@@H](C(N)=O)NC(=O)[C@H](Cc2c[nH]c3ccccc23)NC(=O)[C@H](CCCNC(=N)N)NC(=O)[C@@H](Cc2ccccc2)NC(=O)[C@H](Cc2c[nH]cn2)NC1=O [HBPL 3, SiFAlin-APG-PEG5-c(RGDfK)/GG-Nle-c(DHfRWK)]	3.44 ± 0.09	1910 ± 70	
CCCC[C@H](NC(=O)CNC(=O)CNC(=O)CCOCCOCCOCCOCCOCCOCCOCCOCCOCCC(=O)NCCCN(CCCNC(=O)CCOCCOCCOCCOCCOCCOCCOCCOCCOCCC(=O)NCCCC[C@@H]1NC(=O)[C@@H](Cc2ccccc2)NC(=O)[C@H](CC(=O)O)NC(=O)CNC(=O)[C@H](CCCNC(=N)N)NC1=O)CC(=O)N[C@@H](CCCCNC(=O)CCC[N+](C)(C)Cc1ccc([Si](F)(C(C)(C)C)C(C)(C)C)cc1)C(N)=O)C(=O)N[C@H]1CC(=O)NCCCC[C@@H](C(N)=O)NC(=O)[C@H](Cc2c[nH]c3ccccc23)NC(=O)[C@H](CCCNC(=N)N)NC(=O)[C@@H](Cc2ccccc2)NC(=O)[C@H](Cc2c[nH]cn2)NC1=O [HBPL 4, SiFAlin-APG-PEG8-c(RGDfK)/GG-Nle-c(DHfRWK)]	6 ± 0.47	2030 ± 323	
CCCC[C@H](NC(=O)CNC(=O)CNC(=O)COCC(=O)NCCCN(CCCNC(=O)COCC(=O)NCCCC[C@@H]1NC(=O)[C@@H](Cc2ccccc2)NC(=O)[C@H](CC(=O)O)NC(=O)CNC(=O)[C@H](CCCNC(=N)N)NC1=O)CC(=O)N[C@@H](CCCCNC(=O)CCC[N+](C)(C)Cc1ccc([Si](F)(C(C)(C)C)C(C)(C)C)cc1)C(N)=O)C(=O)N[C@H]1CC(=O)NCCCC[C@@H](C(N)=O)NC(=O)[C@H](Cc2c[nH]c3ccccc23)NC(=O)[C@H](CCCNC(=N)N)NC(=O)[C@@H](Cc2ccccc2)NC(=O)[C@H](Cc2c[nH]cn2)NC1=O [HBPL 5, SiFAlin-APG-DIG-c(RGDfK)/GG-Nle-c(DHfRWK)]	2.05 ± 0.35	5900 ± 722	
CCCC[C@H](NC(=O)CNC(=O)CNC(=O)[C@H](CCC(=O)O)NC(=O)CNC(=O)[C@H](CCC(=O)O)NC(=O)CNC(=O)[C@H](CCC(=O)O)NC(=O)C(=O)NCCCN(CCCNC(=O)C(=O)N[C@@H](CCC(=O)O)C(=O)NCC(=O)N[C@@H](CCC(=O)O)C(=O)NCC(=O)N[C@@H](CCC(=O)O)C(=O)NCCCC[C@@H]1NC(=O)[C@@H](Cc2ccccc2)NC(=O)[C@H](CC(=O)O)NC(=O)CNC(=O)[C@H](CCCNC(=N)N)NC1=O)CC(=O)N[C@@H](CCCCNC(=O)CCC[N+](C)(C)Cc1ccc([Si](F)(C(C)(C)C)C(C)(C)C)cc1)C(N)=O)C(=O)N[C@H]1CC(=O)NCCCC[C@@H](C(N)=O)NC(=O)[C@H](Cc2c[nH]c3ccccc23)NC(=O)[C@H](CCCNC(=N)N)NC(=O)[C@@H](Cc2ccccc2)NC(=O)[C@H](Cc2c[nH]cn2)NC1=O [HBPL 6, SiFAlin-APG-Ox-EGEGE-c(RGDfK)/GG-Nle-c(DHfRWK)]	4.18 ± 0.32	> 100000	IC50 (U87MG) ([2]; integrin αvβ3-positive U87MG cells, competitor [125I]I-echistatin, mean ± SD): could not be determined
N=C(N)NCCC[C@@H]1NC(=O)[C@H](CS)NC(=O)[C@@H](Cc2ccccc2)NC(=O)[C@H](CC(=O)O)NC(=O)CNC1=O [c(RGDfC), reference compound] (cyclo(RGD[dF]C))			IC50 ([2]; integrin αvβ3-positive U87MG cells, competitor [125I]I-echistatin, mean ± SD, read-out: IC50 (U87MG)): 1490 ± 210 nM
N=C(N)NCCC[C@@H]1NC(=O)[C@H](CCCCN)NC(=O)[C@@H](Cc2ccccc2)NC(=O)[C@H](CC(=O)O)NC(=O)CNC1=O [c(RGDfK), cyclic Arg-Gly-Asp-DPhe-Lys, reference compound]			receptor-specific binding to MC1R ([1]; B16F10 cells, same conditions as IC50 assay (Figure S92)): no receptor-specific binding
Gly-Gly-Nle-cyclic Asp-His-DPhe-Arg-Trp-Lys [GG-Nle-c(DHfRWK), reference compound]			receptor-specific binding to integrin αvβ3 ([2]; U87MG cells, same conditions as IC50 assay (Figure S92)): no receptor-specific binding
NDP: superpotent synthetic analog of the endogenous ligand α-MSH; reference and blocking substance [reference compound]			IC50 ([1]; MC1R-positive B16F10 cells, competitor [125I]I-NDP, mean ± SD, read-out: IC50 (B16F10)): 0.17 ± 0.04 nM
